Measurements from paper PMC9186362, “Design and biological evaluation of substituted 5,7-dihydro-6H-indolo[2,3-c]quinolin-6-one as novel selective Haspin inhibitors” (Journal of Enzyme Inhibition and Medicinal Chemistry, 2022).

Key:
Test in all cases: SelectScreen ZLYTE
Type in all cases: biochemical
[1] = target: MST4 (Homo sapiens, UniProt Q9P289); settings: ATP Km, read-out: Percentage of inhibition
In short: (§1)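 A kinome-wide single-concentration screen (1 μM) supplied these numbers, given as percent inhibition.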

[2] = target: T1, MAP2K1 (MEK1) (Homo sapiens, UniProt Q02750); settings: ATP 100 µM, read-out: Percentage of inhibition
T1 construct: purchased Life Technologies (SelectScreen Whole Panel)
In short: as §1

[3] = target: PDK1 (Homo sapiens, UniProt O15530); settings: ATP 100 µM, read-out: Percentage of inhibition
In short: as §1

[4] = target: T2, NEK1 (Homo sapiens, UniProt Q96PY6); settings: ATP Km, read-out: Percentage of inhibition
T2 construct: purchased Life Technologies (SelectScreen Whole Panel service)
T2 sequence (Q96PY6 whole entry): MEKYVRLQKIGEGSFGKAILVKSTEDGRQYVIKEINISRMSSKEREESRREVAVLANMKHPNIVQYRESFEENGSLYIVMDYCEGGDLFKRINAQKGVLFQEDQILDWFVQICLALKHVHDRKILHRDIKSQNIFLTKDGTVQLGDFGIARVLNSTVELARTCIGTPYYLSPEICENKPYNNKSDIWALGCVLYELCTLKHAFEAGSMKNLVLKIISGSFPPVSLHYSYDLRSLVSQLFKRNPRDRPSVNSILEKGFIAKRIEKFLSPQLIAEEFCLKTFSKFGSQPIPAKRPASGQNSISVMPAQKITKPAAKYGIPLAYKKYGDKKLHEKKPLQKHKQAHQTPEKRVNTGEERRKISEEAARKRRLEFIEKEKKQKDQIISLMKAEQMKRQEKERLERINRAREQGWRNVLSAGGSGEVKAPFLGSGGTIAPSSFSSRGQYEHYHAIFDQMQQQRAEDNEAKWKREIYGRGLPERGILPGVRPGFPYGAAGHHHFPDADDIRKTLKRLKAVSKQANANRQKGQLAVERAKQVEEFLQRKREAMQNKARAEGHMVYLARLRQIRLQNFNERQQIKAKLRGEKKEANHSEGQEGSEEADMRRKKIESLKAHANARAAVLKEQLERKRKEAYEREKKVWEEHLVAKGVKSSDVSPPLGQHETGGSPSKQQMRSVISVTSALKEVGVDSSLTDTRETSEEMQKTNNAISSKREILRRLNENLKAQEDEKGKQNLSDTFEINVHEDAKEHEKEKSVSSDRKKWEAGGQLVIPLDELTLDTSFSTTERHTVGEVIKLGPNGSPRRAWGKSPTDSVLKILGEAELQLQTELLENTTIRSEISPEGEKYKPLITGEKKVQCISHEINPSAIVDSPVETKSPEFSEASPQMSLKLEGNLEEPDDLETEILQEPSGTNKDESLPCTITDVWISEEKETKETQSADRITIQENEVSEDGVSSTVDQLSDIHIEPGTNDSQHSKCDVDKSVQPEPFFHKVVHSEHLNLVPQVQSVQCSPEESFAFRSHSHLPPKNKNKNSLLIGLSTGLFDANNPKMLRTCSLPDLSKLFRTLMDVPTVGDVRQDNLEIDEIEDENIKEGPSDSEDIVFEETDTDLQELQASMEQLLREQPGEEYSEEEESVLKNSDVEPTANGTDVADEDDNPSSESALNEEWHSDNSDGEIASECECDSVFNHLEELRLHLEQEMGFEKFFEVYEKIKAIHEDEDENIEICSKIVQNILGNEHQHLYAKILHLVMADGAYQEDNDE
In short: as §1

[5] = target: CSNK1A1L (Homo sapiens, UniProt Q8N752); settings: ATP Km, read-out: Percentage of inhibition
In short: as §1

[6] = target: T3, MATK (HYL) (Homo sapiens, UniProt P42679); settings: ATP Km, read-out: Percentage of inhibition
T3 construct: purchased Life Technologies (SelectScreen Whole Panel service)
In short: as §1

[7] = target: T4, GSK3A (GSK3 alpha) (Homo sapiens, UniProt P49840); settings: ATP Km, read-out: Percentage of inhibition
T4 construct: purchased Life Technologies (SelectScreen service)
In short: as §1

[8] = target: IRAK4 (Homo sapiens, UniProt Q9NWZ3); settings: ATP Km, read-out: Percentage of inhibition
In short: as §1

[9] = target: KIT V559D V654A (Homo sapiens, UniProt P10721, V559D/V654A); settings: ATP Km, read-out: Percentage of inhibition
In short: as §1

[10] = target: CDK17/cyclin Y (Homo sapiens, UniProt Q00537); settings: ATP Km, read-out: Percentage of inhibition
In short: as §1

[11] = target: FER (Homo sapiens, UniProt P16591); settings: ATP Km, read-out: Percentage of inhibition
In short: as §1

[12] = target: T5, PAK3 (Homo sapiens, UniProt O75914); settings: ATP Km, read-out: Percentage of inhibition
T5 construct: purchased Life Technologies
In short: as §1

[13] = target: T6, PRKG2 (PKG2) (Homo sapiens, UniProt Q13237); settings: ATP Km, read-out: Percentage of inhibition
T6 construct: purchased Life Technologies
In short: as §1

[14] = target: T7, NEK6 (Homo sapiens, UniProt Q9HC98); settings: ATP Km, read-out: Percentage of inhibition
T7 construct: purchased Life Technologies (SelectScreen)
T7 sequence (Q9HC98 whole entry): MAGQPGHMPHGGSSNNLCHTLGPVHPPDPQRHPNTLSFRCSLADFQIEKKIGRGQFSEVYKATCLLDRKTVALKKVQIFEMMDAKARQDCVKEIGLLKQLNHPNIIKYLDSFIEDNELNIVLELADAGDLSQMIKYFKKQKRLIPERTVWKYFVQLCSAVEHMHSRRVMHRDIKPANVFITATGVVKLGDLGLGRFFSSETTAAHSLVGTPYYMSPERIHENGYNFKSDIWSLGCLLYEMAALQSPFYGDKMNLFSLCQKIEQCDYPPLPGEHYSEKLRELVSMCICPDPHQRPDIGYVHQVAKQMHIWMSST
In short: as §1

[15] = target: T8, SNF1LK2 (Homo sapiens, UniProt Q9H0K1); settings: ATP Km, read-out: Percentage of inhibition
T8 construct: purchased Life Technologies (SelectScreen service)
In short: as §1

[16] = target: T9, PIM3 (Homo sapiens, UniProt Q86V86); settings: ATP Km, read-out: Percentage of inhibition
T9 construct: purchased Life Technologies
In short: as §1

[17] = target: T10, IKBKB (IKK beta) (Homo sapiens, UniProt O14920); settings: ATP Km, read-out: Percentage of inhibition
T10 construct: purchased Life Technologies (SelectScreen Whole Panel)
In short: as §1

[18] = target: T11, GRK5 (Homo sapiens, UniProt P34947); settings: ATP Km, read-out: Percentage of inhibition
T11 construct: purchased Life Technologies (SelectScreen Whole Panel service)
T11 sequence (P34947 whole entry): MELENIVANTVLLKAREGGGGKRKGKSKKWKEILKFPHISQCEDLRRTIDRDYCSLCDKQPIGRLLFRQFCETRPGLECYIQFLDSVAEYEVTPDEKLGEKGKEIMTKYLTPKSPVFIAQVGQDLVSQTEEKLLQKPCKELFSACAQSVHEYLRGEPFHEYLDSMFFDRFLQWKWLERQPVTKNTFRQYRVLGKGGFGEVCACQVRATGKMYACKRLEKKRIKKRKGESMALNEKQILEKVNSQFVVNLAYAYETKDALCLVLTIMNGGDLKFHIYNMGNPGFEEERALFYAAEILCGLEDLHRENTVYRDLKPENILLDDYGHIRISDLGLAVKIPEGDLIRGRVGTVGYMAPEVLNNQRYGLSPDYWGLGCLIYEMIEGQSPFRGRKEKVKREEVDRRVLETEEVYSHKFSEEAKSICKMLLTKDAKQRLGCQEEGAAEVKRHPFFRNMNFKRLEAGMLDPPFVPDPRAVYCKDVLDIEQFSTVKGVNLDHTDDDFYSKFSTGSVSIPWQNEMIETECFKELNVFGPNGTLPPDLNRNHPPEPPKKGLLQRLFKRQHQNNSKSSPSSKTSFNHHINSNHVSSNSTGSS
In short: as §1

[19] = target: T12, NEK9 (Homo sapiens, UniProt Q8TD19); settings: ATP Km, read-out: Percentage of inhibition
T12 construct: purchased Life Technologies
In short: as §1

[20] = target: T13, FGFR3 (Homo sapiens, UniProt P22607); settings: ATP Km, read-out: Percentage of inhibition
T13 construct: purchased Life Technologies
In short: as §1

[21] = target: T14, BTK (Homo sapiens, UniProt Q06187); settings: ATP Km, read-out: Percentage of inhibition
T14 construct: purchased Life Technologies (SelectScreen service)
In short: as §1

[22] = target: T15, TNK1 (Homo sapiens, UniProt Q13470); settings: ATP Km, read-out: Percentage of inhibition
T15 construct: purchased Life Technologies
In short: as §1

[23] = target: T16, PASK (Homo sapiens, UniProt Q96RG2); settings: ATP Km, read-out: Percentage of inhibition
T16 construct: purchased Life Technologies (SelectScreen Whole Panel)
In short: as §1

[24] = target: T17, TAOK2 (TAO1) (Homo sapiens, UniProt Q9UL54); settings: ATP Km, read-out: Percentage of inhibition
T17 construct: purchased Life Technologies
In short: as §1

[25] = target: T18, MAPKAPK2 (Homo sapiens, UniProt P49137); settings: ATP Km, read-out: Percentage of inhibition
T18 construct: purchased Life Technologies
In short: as §1

[26] = target: T19, CHEK2 (CHK2) (Homo sapiens, UniProt O96017); settings: ATP Km, read-out: Percentage of inhibition
T19 construct: purchased Life Technologies
In short: as §1

[27] = target: T20, CLK2 (Homo sapiens, UniProt P49760); settings: ATP Km, read-out: Percentage of inhibition
T20 construct: purchased Life Technologies
In short: as §1

[28] = target: T21, NEK4 (Homo sapiens, UniProt P51957); settings: ATP Km, read-out: Percentage of inhibition
T21 construct: purchased Life Technologies
In short: as §1

[29] = target: KSR2 (Homo sapiens, UniProt Q6VAB6); settings: ATP Km, read-out: Percentage of inhibition
In short: as §1

[30] = target: T22, RPS6KB1 (p70S6K) (Homo sapiens, UniProt P23443); settings: ATP Km, read-out: Percentage of inhibition
T22 construct: purchased Life Technologies (SelectScreen Whole Panel service)
In short: as §1

[31] = target: T23, ABL1 E255K (Homo sapiens, UniProt P00519, E255K); settings: ATP Km, read-out: Percentage of inhibition
T23 construct: purchased Life Technologies
In short: as §1

[32] = target: T24, PRKCE (PKC epsilon) (Homo sapiens, UniProt Q02156); settings: ATP Km, read-out: Percentage of inhibition
T24 construct: purchased Life Technologies (SelectScreen Whole Panel service)
In short: as §1

[33] = target: T25, EPHB3 (Homo sapiens, UniProt P54753); settings: ATP Km, read-out: Percentage of inhibition
T25 construct: purchased Life Technologies (SelectScreen Whole Panel)
In short: as §1

[34] = target: MST1R (RON) (Homo sapiens, UniProt Q04912); settings: ATP Km, read-out: Percentage of inhibition
Chain of MST1R (RON) (Q04912 25-1400): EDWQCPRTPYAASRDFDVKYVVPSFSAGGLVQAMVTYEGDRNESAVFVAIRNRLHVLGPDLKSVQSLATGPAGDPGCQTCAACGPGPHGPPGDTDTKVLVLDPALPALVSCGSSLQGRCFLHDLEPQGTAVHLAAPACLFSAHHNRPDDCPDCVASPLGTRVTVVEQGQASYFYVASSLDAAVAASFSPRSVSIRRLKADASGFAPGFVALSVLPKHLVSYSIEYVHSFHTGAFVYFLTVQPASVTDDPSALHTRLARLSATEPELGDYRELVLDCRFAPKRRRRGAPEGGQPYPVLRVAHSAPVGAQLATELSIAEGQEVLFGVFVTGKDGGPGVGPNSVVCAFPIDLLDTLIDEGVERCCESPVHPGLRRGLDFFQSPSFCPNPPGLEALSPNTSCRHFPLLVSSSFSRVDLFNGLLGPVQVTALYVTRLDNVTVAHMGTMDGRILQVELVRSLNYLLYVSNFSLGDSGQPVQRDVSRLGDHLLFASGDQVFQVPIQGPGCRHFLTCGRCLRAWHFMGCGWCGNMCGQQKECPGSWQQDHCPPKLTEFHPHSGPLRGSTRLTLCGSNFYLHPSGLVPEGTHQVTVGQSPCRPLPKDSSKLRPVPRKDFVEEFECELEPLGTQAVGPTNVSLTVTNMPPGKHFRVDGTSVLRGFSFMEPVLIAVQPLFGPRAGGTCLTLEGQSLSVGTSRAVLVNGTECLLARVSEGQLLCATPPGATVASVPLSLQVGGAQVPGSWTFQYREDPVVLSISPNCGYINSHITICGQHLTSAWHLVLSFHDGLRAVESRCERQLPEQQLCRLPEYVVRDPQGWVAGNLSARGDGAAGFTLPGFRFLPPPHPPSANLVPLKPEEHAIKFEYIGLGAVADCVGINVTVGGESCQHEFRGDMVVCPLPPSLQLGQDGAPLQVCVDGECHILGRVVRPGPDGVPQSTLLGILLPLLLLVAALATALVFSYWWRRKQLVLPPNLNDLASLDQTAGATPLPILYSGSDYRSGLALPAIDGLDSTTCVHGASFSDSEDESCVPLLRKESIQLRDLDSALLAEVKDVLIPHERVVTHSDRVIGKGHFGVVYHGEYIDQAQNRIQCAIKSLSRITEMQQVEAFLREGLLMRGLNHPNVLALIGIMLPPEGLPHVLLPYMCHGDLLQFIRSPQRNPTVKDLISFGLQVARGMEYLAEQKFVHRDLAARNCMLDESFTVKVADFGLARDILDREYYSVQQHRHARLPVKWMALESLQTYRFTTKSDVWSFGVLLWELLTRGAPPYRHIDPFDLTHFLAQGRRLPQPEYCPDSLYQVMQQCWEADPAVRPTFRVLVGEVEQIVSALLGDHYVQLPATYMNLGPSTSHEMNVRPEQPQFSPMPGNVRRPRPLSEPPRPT
In short: as §1

[35] = target: T26, KIT V559D (Homo sapiens, UniProt P10721, V559D); settings: ATP Km, read-out: Percentage of inhibition
T26 construct: purchased Life Technologies
In short: as §1

[36] = target: T27, PLK1 (Homo sapiens, UniProt P53350); settings: ATP Km, read-out: Percentage of inhibition
T27 construct: purchased Life Technologies (SelectScreen Whole Panel service)
In short: as §1

[37] = target: T28, AURKC (Aurora C) (Homo sapiens, UniProt Q9UQB9); settings: ATP Km, read-out: Percentage of inhibition
T28 construct: purchased Life Technologies (SelectScreen Whole Panel service)
In short: as §1

[38] = target: T29, BLK (Homo sapiens, UniProt P51451); settings: ATP Km, read-out: Percentage of inhibition
T29 construct: purchased Life Technologies (SelectScreen service)
In short: as §1

[39] = target: T30, TEK (TIE2) Y897S (Homo sapiens, UniProt Q02763, Y897S); settings: ATP Km, read-out: Percentage of inhibition
T30 construct: purchased Life Technologies (SelectScreen Whole Panel)
T30 sequence (Q02763 23-1124 Y897S): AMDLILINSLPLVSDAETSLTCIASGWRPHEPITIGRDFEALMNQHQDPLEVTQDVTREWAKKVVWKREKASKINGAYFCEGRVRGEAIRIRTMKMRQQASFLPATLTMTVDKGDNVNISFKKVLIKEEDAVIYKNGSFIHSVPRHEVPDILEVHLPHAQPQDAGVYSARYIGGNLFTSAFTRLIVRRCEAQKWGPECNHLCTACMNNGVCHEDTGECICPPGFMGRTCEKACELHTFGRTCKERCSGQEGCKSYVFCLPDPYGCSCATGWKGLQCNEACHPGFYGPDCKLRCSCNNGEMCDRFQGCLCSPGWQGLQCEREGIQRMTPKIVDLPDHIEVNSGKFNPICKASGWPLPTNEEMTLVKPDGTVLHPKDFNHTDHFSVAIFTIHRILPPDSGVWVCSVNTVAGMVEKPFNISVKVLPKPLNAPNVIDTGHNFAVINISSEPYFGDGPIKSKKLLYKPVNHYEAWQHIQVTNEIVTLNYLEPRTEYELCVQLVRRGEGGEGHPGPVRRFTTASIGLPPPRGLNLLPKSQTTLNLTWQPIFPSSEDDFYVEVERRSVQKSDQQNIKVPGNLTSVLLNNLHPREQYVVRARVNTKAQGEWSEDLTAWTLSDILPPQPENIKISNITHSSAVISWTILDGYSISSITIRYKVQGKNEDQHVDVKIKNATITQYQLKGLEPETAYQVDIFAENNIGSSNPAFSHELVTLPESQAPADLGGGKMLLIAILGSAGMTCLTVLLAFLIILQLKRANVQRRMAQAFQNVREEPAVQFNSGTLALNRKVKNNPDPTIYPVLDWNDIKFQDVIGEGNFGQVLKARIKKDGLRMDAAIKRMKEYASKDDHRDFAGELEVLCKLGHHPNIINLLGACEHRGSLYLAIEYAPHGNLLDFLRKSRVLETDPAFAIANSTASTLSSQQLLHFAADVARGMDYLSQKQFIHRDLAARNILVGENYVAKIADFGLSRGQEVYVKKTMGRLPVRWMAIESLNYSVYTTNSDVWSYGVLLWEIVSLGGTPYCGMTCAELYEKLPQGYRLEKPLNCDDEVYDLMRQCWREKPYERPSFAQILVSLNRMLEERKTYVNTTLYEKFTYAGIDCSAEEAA
In short: as §1

Chain of MST4 (Q9P289 whole entry): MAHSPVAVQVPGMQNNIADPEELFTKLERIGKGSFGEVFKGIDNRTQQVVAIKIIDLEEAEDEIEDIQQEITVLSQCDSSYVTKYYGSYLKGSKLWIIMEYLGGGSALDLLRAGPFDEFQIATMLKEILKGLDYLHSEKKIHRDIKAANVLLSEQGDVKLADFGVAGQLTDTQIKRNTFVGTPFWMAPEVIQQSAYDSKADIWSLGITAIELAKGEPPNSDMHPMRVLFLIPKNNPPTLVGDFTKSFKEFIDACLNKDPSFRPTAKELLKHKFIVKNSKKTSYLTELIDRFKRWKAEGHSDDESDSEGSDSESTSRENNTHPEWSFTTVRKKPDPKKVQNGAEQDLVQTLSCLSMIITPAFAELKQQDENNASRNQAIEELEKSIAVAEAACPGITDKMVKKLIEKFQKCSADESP

Structure (SMILES): COc1ccc2[nH]c3c(=O)[nH]c4ccc(O)cc4c3c2c1 [Compound 55, 2-Hydroxy-10-methoxy-5,7-dihydro-6H-indolo[2,3-c]quinolin-6-one]
- inhibition at 1 µM [1]: 61%
- inhibition at 1 µM [2]: 98%
- inhibition at 1 µM [3]: 15%
- inhibition at 1 µM [4]: 17%
- inhibition at 1 µM [5]: 62%
- inhibition at 1 µM [6]: 11%
- inhibition at 1 µM [7]: 82%
- inhibition at 1 µM [8]: 61%
- inhibition at 1 µM [9]: 19%
- inhibition at 1 µM [10]: 20%
- inhibition at 1 µM [11]: 56%
- inhibition at 1 µM [12]: 5%
- inhibition at 1 µM [13]: 37%
- inhibition at 1 µM [14]: 8%
- inhibition at 1 µM [15]: 24%
- inhibition at 1 µM [16]: 33%
- inhibition at 1 µM [17]: 55%
- inhibition at 1 µM [18]: 18%
- inhibition at 1 µM [19]: 4%
- inhibition at 1 µM [20]: 3%
- inhibition at 1 µM [21]: 24%
- inhibition at 1 µM [22]: 30%
- inhibition at 1 µM [23]: 49%
- inhibition at 1 µM [24]: 3%
- inhibition at 1 µM [25]: 2%
- inhibition at 1 µM [26]: 33%
- inhibition at 1 µM [27]: 97%
- inhibition at 1 µM [28]: 28%
- inhibition at 1 µM [29]: 7%
- inhibition at 1 µM [30]: 12%
- inhibition at 1 µM [31]: 39%
- inhibition at 1 µM [32]: 10%
- inhibition at 1 µM [33]: -9%
- inhibition at 1 µM [34]: 6%
- inhibition at 1 µM [35]: 37%
- inhibition at 1 µM [36]: 10%
- inhibition at 1 µM [37]: 17%
- inhibition at 1 µM [38]: 86%
- inhibition at 1 µM [39]: 1%
